Read-outs that look alike come from different tables or passages of the source.
Legend:
Highly purified T cells [1] = test: T cell proliferation induced by anti-CD28 mAb + PMA (BrdU incorporation); type: cell-based, Human; conditions: Homo sapiens, T-cell
Text: (§1) Various models may be used for testing an immunosuppressive effect. In vivo, for example, different transplantation models are available. They are strongly influenced by different immunogenicities, depending on the donor and recipient species used and depending on the nature of the transplanted organ. The survival time of transplanted organs can thus be used to measure the suppression of the immune response. In vitro, there exist also various models. The most used are lymphocyte activation tests. Usually activation is measured via lymphocyte proliferation. Inhibition of proliferation thus always means immunosuppression under the experimental conditions applied. There exist different stimuli for lymphocyte activation: • coculture of lymphocytes of […] (MLR = mixed lymphocyte reaction): lymphocytes expressing different minor and major antigens of the HLA-DR type (= alloantigens) activate each other non-specifically. • CD3 assay: here there is an activation of the T-lymphocytes via an exogenously added antibody (OKT3). This antibody reacts against the CD3 molecule located on the lymphocyte membrane. This molecule has a costimulatory function. […] This molecule is also located on the lymphocyte membrane, and delivers strong costimulatory signals.
(§2) T cells were purified by removing non-T cells. Briefly,monocytes were removed by cold agglutination. The resulting lymphoid cells were further purified by a cell enrichment immunocolumn [Cellect Human T (Biotex, Edmonton, Alberta, Canada)] by a process of negative selection.
(§3) Measurements of T cell proliferations induced by anti-CD3 mAb + PMA or anti-CD28 mAb + PMA
(§4) Highly purified T cells (10^6/ml) were stimulated by immobilized anti-CD3 àr anti-CD28 mAb in the presence of PMA. Anti-CD3 mAb (CLB-CD3; CLB, Amsterdam, The Netherlands) were fixed on the 96-microwell plates by incubating the wells with 50 µl of mAb solution (1/800 dilution in culture medium). Anti-CD28 mAb (CLB-CD28; CLB, Amsterdam, The Netherlands) 50 µl (1/650 dilution in culture medium) was added directly to the wells. Further, 20 µl PMA (Sigma, St. Louis, MO, USA) solution (final concentration: 0.5 ng/ml) was added. Subsequently, 20 µl of immunosuppressants were added by serial dilution in triplicate wells. Finally 100 µl of the T cell suspension (10^6/ml) was added. After 48-hour incubation at 37EC in 5% CO2 20 Φl BrdU (100 ΦM solution) (Cell Proliferation Elisa, Boehringer-Mannheim Belgium) was added to each well. After a further overnight incubation the T cell proliferation was measured using a colorimetric immunoassay for qualification of cell proliferation based on measurements of the incorporation of BrdU during DNAsynthesis. The optical density (OD) was measured by a Behring EL311 plate reader at 450 nm (reference wavelength: 690 nm). The percent suppression of proliferation by drugs was counted using the formula: Per cent inhibition =((OD + drugs) - (OD Cult. Med.))/((OD - drugs) - (OD Cult. Med.))x 100 [formula]

Highly purified T cells [2] = test: T cell proliferation induced by anti-CD3 mAb + PMA (BrdU incorporation); type: cell-based, Human; conditions: Homo sapiens, T-cell
Text: as §1, §2, §3, §4

[3] = test system: Peripheral blood mononuclear cells (PBMC); test: Mixed lymphocyte reaction (MLR), [3H]-thymidine incorporation; type: cell-based; conditions: Homo sapiens
Text: as §1
Peripheral blood mononuclear cells (PBMC) were isolated from heparinized peripheral blood by density gradient centrifugation over Lymphoprep (Nycomed, Maorstua, Norway). Allogeneic PBMC or EBV-transformed human B cells [RPMI1788 (ATCC name CCL156)] which strongly express B7-1 and B7-2 were used as stimulator cells after irradiation with 30 Gy. MLR was performed in triplicate wells. After 5 days incubation at 37EC, 1 µCi [^3H]-thymidine was added to each cup. After a further 16 hours incubation, cells were harvested and counted in a β-counter.
The percent suppression of proliferation by drugs was counted using the formula Percent inhibition =((cpm + drugs) - cpm Cult. Med)/((cpm - drugs) - cpm Cult. Med.)x 100 [formula]

[4] = Table II, read-out: IC50 in µM of pteridine derivative aCD28
[5] = untitled structure table, no unit printed there, same values in Table II as IC50 in µM, read-out: aCD28
[6] = Table II, read-out: IC50 in µM of pteridine derivative ACD3
[7] = untitled structure table, no unit printed there, same values in Table II as IC50 in µM, read-out: aCD3
[8] = Table II, read-out: IC50 in µM of pteridine derivative MLR
[9] = untitled structure table, no unit printed there, same values in Table II as IC50 in µM, read-out: MLR
[10] = untitled structure table, IC50 subranges, read-out: aCD28
[11] = untitled structure table, IC50 subranges, read-out: aCD3
[12] = untitled structure table, IC50 subranges, read-out: MLR
[13] = Table III, comparison immunosuppressants, read-out: IC50 aCD28
[14] = Table III, comparison immunosuppressants, read-out: IC50 aCD3
[15] = Table III, comparison immunosuppressants, read-out: IC50 MLR

Compound	IC50 (Highly purified T cells [1]; [4])	IC50 (Highly purified T cells [1]; [5])	IC50 (Highly purified T cells [2]; [6])	IC50 (Highly purified T cells [2]; [7])	IC50 [3, 8]	IC50 [3, 9]	also measured
COc1ccc(-c2cnc3nc(N)nc(N4CCNCC4)c3n2)cc1 [Compound 48, 2-amino-4-piperazino-6-(4-methoxyphenyl)pteridine]	4.5 µM	4.5 µM	14 µM	14 µM	10.5 µM	10.5 µM	
Nc1nc(N2CCOCC2)c2nc(-c3ccccc3)cnc2n1 [Compound 33, 2-amino-4-morpholino-6-phenylpteridine]	20 µM	20 µM	100 µM	100 µM	15 µM	15 µM	
Nc1nc(N2CCNCC2)c2nc(-c3ccc(Cl)cc3)cnc2n1 [Compound 47, 2-amino-4-piperazino-6-(4-chlorophenyl)pteridine]	15 µM	15 µM	20 µM	20 µM	2 µM	2 µM	
CCCNc1nc(N)nc2ncc(-c3ccccc3)nc12 [Compound 62, 2-amino-4-propylamino-6-phenylpteridine]							IC50 (Highly purified T cells [1]; [10]): 16 to 150 µM; IC50 (Highly purified T cells [2]; [11]): 16 to 150 µM; IC50 [3, 12]: 1 to 15 µM
CCCCCOc1nc(N)nc2ncc(C(Br)C(Br)c3ccccc3)nc12 (stereo not drawn) [Compound 2, 2-amino-4-n-pentoxy-6-(1,2-dibromo-2-phenylethyl)pteridine]	12 µM	12 µM	4 µM	4 µM	12 µM	12 µM	
CCCN(CCC)c1nc(N)nc2ncc(-c3ccc(OC)c(OC)c3)nc12 [Compound 32, 2-amino-4-dipropylamino-6-(3,4-dimethoxyphenyl)pteridine]	0.7 µM	0.7 µM	0.8 µM	0.8 µM	2.2 µM	2.2 µM	
CCCN(CCC)c1nc(N)nc2ncc(-c3ccc(Cl)cc3)nc12 [Compound 30, 2-amino-4-dipropylamino-6-(4-chlorophenyl)pteridine]	6.7 µM	6.7 µM	9.7 µM	9.7 µM	13 µM	13 µM	
CNCc1cnc2nc(N)[nH]c(=O)c2n1 [CH2NHCH3, reference compound]							IC50 (Highly purified T cells [1]; Table IV, known pteridine derivatives, IC50 subranges, read-out: aCD28): > 151 µM; IC50 (Highly purified T cells [2]; Table IV, known pteridine derivatives, IC50 subranges, read-out: aCD3): > 151 µM; IC50 ([3]; Table IV, known pteridine derivatives, IC50 subranges, read-out: MLR): > 151 µM
COc1cc(-c2cnc3nc(N)nc(N(Cc4ccccc4)Cc4ccccc4)c3n2)cc(OC)c1OC [Compound 50, 2-amino-4-dibenzylamino-6-(3,4,5-trimethoxyphenyl)pteridine]							IC50 (Highly purified T cells [1]; [10]): 1 to 15 µM; IC50 (Highly purified T cells [2]; [11]): 1 to 15 µM; IC50 [3, 12]: 1 to 15 µM
Nc1nc(N(Cc2ccccc2)Cc2ccccc2)c2nc(-c3ccc(Cl)cc3)cnc2n1 [Compound 26, 2-amino-dibenzylamino-6-(4-chlorophenyl) pteridine]	20 µM	20 µM	75 µM	75 µM	100 µM	100 µM	
COc1nc2nc(N)nc(OC)c2nc1C=Cc1ccccc1 [Compound 3, 2-amino-4-methoxy-6-styryl-7-methoxypteridine]	100 µM	100 µM	160 µM	160 µM	25 µM	25 µM	
CN(C)c1nc(N)nc2ncc(-c3ccc4c(c3)OCO4)nc12 [Compound 57, 2-amino-4-dimethylamino-6-(3,4-formylidene-3,4-dihydroxyphenyl)pteridine]							IC50 (Highly purified T cells [1]; [10]): 16 to 150 µM; IC50 (Highly purified T cells [2]; [11]): 16 to 150 µM; IC50 [3, 12]: > 151 µM
Nc1nc(N)c2nc(-c3ccc(Cl)cc3)cnc2n1 [Compound 9, 2,4-diamino-6-(4-chlorophenyl)pteridine]	110 µM	110 µM	110 µM	110 µM	125 µM	125 µM	
CO[C@H]1C[C@@H]2CC[C@@H](C)[C@@](O)(O2)C(=O)C(=O)N2CCCC[C@H]2C(=O)O[C@H]([C@H](C)C[C@@H]2CC[C@@H](O)[C@H](OC)C2)CC(=O)[C@H](C)/C=C(\C)[C@@H](O)[C@@H](OC)C(=O)[C@H](C)C[C@H](C)/C=C/C=C/C=C/1C [Rapamycin, reference compound]							IC50 (Highly purified T cells [1]; [13]): 0.001 µM; IC50 (Highly purified T cells [2]; [14]): 0.001 µM; IC50 [3, 15]: 0.001 µM
CN1CCN(c2nc(N)nc3ncc(-c4ccc(Cl)cc4)nc23)CC1 [Compound 42, 2-amino-4-N-methylpiperazino-6-(4-chlorophenyl)pteridine]	4.2 µM	4.2 µM	11 µM	11 µM	4.8 µM	4.8 µM	
Cc1oncc1C(=O)Nc1ccc(C(F)(F)F)cc1 [Leflunomide, reference compound]							IC50 (Highly purified T cells [1]; [13]): 20 µM; IC50 (Highly purified T cells [2]; [14]): 15 µM; IC50 [3, 15]: 25 µM
Nc1nc(N2CCCCC2)c2nc(-c3ccccc3)cnc2n1 [Compound 37, 2-amino-4-piperidino-6-phenylpteridine]	20 µM	20 µM	80 µM	80 µM	15 µM	15 µM	
COCCOCc1cnc2nc(N)nc(N)c2n1 [Compound 17, 2,4-diamino-6-methoxyethoxymethyl pteridine]	18 µM	18 µM	180 µM	180 µM	> 200 µM	> 200 µM	
COc1ccc(-c2cnc3nc(N)nc(N(C)C)c3n2)cc1OC [Compound 59, 2-amino-4-dimethylamino-6-(3,4-dimethoxyphenyl)pteridine]							IC50 (Highly purified T cells [1]; [10]): 1 to 15 µM; IC50 (Highly purified T cells [2]; [11]): 1 to 15 µM; IC50 [3, 12]: < 1 µM
COc1ccc(-c2cnc3nc(N)nc(N(C)C)c3n2)cc1 [Compound 16, 2-amino-4-dimethylamino-6-(4-methoxyphenyl)pteridine]	7.5 µM	7.5 µM	7.5 µM	7.5 µM	12 µM	12 µM	
COc1ccc(-c2cnc3nc(N)nc(N4CCN(C)CC4)c3n2)cc1 [Compound 43, 2-amino-4-N-methylpiperazino-6-(4-methoxyphenyl)pteridine]	4.2 µM	4.2 µM	11.7 µM	11.7 µM	12.3 µM	12.3 µM	
Nc1nc(N2CCOCC2)c2nc(-c3ccc(Cl)cc3)cnc2n1 [Compound 34, 2-amino-4-morpholino-6-(4-chlorophenyl)pteridine]	20 µM	20 µM	20 µM	20 µM	12 µM	12 µM	
COc1ccc(-c2cnc3nc(N)nc(N(Cc4ccccc4)Cc4ccccc4)c3n2)cc1OC [Compound 28, 2-amino-4-dibenzylamino-6-(3,4-dimethoxyphenyl) pteridine]	3.2 µM	3.2 µM	4.3 µM	4.3 µM	3.5 µM	3.5 µM	

Reference: patent EP1144412B1, “IMMUNOSUPPRESSIVE EFFECTS OF PTERIDINE DERIVATIVES” (4 AZA Bioscience nv, priority 1998, dated 2000)
